{"source": "paper PMC9145865", "about": "“Effects of Rare Phytocannabinoids on the Endocannabinoid System of Human Keratinocytes” (International Journal of Molecular Sciences, 2022)", "origin": "cited, not measured here", "test_system": "transformed human keratinocytes", "parameters": "method as in PMID 17157480", "conditions": "hyperproliferative conditions; ref [46]; cited from earlier work", "data": [{"smiles": "CCCCCc1cc(O)c2c(c1)OC(C)(C)[C@@H]1CCC(C)=C[C@@H]21", "note": "[Δ^9-THC, Δ^9-tetrahydrocannabinol]", "values": [{"measurement": "proliferation of transformed human keratinocytes", "result": "inhibit the proliferation"}]}, {"smiles": "C=C(C)[C@@H]1CCC(C)=C[C@H]1c1c(O)cc(CCCCC)cc1O", "note": "[CBD, cannabidiol]", "values": [{"measurement": "proliferation of transformed human keratinocytes", "result": "inhibit the proliferation"}]}]}
